Measurements reported in ChEMBL document CHEMBL5370565, “Inhibition of Cysteine Proteases via Thiol-Michael Addition Explains the Anti-SARS-CoV-2 and Bioactive Properties of Arteannuin B” (J Nat Prod, 2023).
Activity calls are given as the source filed them. No cut-off for these calls is given here.

What was measured:
Glioblastoma cell line = test: Cytotoxicity against glioblastoma (unknown origin) cells assessed as reduction in cell viability at 35 uM incubated for 24 hrs by eFluor 780 fixable viability dye based flow cytometric analysis; format: functional
Caspase-8 (Homo sapiens) = Caspase-8 (Homo sapiens) (UniProt Q14790); test: Inhibition of C-terminal 6his tagged human Caspase 8 activity expressed in Escherichia coli BL21 (DE3) cells at 50 uM preincubated for 30 mins by LC-MS analysis
Sequence of Caspase-8 (Homo sapiens) (Q14790 217-374 limits assumed): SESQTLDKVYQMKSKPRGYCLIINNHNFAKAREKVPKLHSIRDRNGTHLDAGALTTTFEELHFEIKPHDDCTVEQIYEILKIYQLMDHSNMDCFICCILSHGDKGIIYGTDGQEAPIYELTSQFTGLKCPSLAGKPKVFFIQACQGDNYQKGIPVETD
Sequence of Caspase-8 (Homo sapiens) (Q14790 385-479 limits assumed): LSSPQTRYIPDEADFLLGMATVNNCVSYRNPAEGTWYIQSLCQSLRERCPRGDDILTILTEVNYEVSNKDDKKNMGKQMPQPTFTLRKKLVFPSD

[1] = tested on: Severe acute respiratory syndrome coronavirus 2; test: Inhibition of C-terminal 6his-tagged/N-terminal strepII-tagged SARS-CoV-2 NSP5 expressed in Escherichia coli BL21 (DE3) cells using (4-Fluoro-F)LQS as substrate assessed as (4-fluoro-F)L production at 48 uM preincubated with compound for 60 mins followed by substrate addition and measured after 300 mins by LC-MS analysis relative to control; details: time 360.0 min
SARS-CoV-2 = test: Antiviral activity against SARS-CoV-2 GX_P2V infected in African green monkey Vero E6 cells assessed as reduction in viral yield pretreated with cells for 2 hrs followed by viral infection and measured after 72 hrs by qRT-PCR analysis; format: functional, organism-based; details: Severe acute respiratory syndrome coronavirus 2, GX_P2V, Vero C1008

| Structure (SMILES) | Activity (Glioblastoma cell line) | inhibition (Caspase-8 (Homo sapiens)) | inhibition [1] [%] | EC50 (SARS-CoV-2) [µM] |
| --- | --- | --- | --- | --- |
| C[C@@H]1CC[C@H]2[C@H](C)C(=O)O[C@]23[C@H]1CC[C@@]1(C)O[C@@H]31 | inactive | – | – | – |
| C=C1C(=O)O[C@@]23C1CC[C@@H](C)[C@@H]2CC[C@@]1(C)O[C@@H]31 (stereo not given in full) | Active | Active | 45 | 8.84 |
